Test results published in patent US10676442B2, “Salt derivative of tetrahydroisoquinoline and crystalline thereof and preparation method therefore and application thereof” (CHINA STATE INSTITUTE OF PHARMACEUTICAL INDUSTRY, priority 2016, dated 2020).
Several values for one entry are separate records, joined by “and”; a condition that tells them apart may be missing. Equal entries are not always repeated.

Assays:
[1] = Measurement of solubility in water by liquid chromatography; format: physicochemical
Protocol: Solubility of SIPI-409 and of the salt derivatives thereof in water was measured by liquid chromatography.
Main steps: preparing SIPI-409 standards at the concentrations of 5 ? g/mL, 10 ? g/mL, 50 ? g/mL, 100 ? g/mL, 200 ? g/mL and establishing the standard curve of these preparations.
Chromatography Conditions:
Chromatography column: Phenomenex Luna 5u C18(2) 100 A 4.6×200 mm
Detection wave-length: 210 nm
Mobile phase: acetonitrile/phosphate buffer (0.68 g/L monopotassium phosphate, pH was adjusted to 3.0 using triethylamine)=68/32
Column temperature: 30° C.
Load volume: 10 ? L
Residence time: around 6.3 min
Sample treatment: the test samples were prepared into saturated solutions in water (suspensions) and shaken for 12 hrs at 30° C., which were further ultrasonicated for 30 s, followed by filtration and preparation of serial dilutions as appropriate, which were then analyzed by HPLC.

[2] = Pharmacokinetic study, single oral dose in SD rats (LC-MS/MS of plasma); format: in vivo
Protocol: SIPI-409 hydrochloride and SIPI-409 phosphate were administrated peros (PO), and were studied on in vivo pharmacokinetic parameters and bioavailability in SD rats. Concentrations of SIPI-409 hydrochloride and SIPI-409 phosphate in plasma were measured at intervals using Liquid Chromatography-Mass Spectrometry-Mass Spectrometry assay.
The obtained plasma concentration data were processed using the pharmacokinetic processing software WinNonlin 5.2 to calculate the relevant pharmacokinetic parameters according to non-compartmental model.

[3] = Pharmacokinetics after intravenous administration in SD rats; format: in vivo; conditions: α-crystalline form, compared with SIPI-409 hydrochloride
[4] = Temperature stability investigation (60° C. oven, XRPD); format: physicochemical; conditions: oven at 60° C., XRPD on day 0, 5, 10, 20 and 30
Protocol: Phosphate, nicotinate, glycolate, oxalate, orotate, benzenesulfonate and sulfate of SIPI-409 were placed in an oven at 60° C. XRPD measurements were carried out on samples taken out on day 0, 5, 10, 20 and 30.

[5] = Humidity stability investigation (92.5% RH, XRPD); format: physicochemical; conditions: 92.5% RH (saturated KNO3), XRPD on day 0, 5, 10, 20 and 30
Protocol: The phosphate, nicotinate, glycolate, oxalate, orotate, benzenesulfonate and sulfate of SIPI-409 were kept in a 92.5% RH (saturated KNO3) atomosphere. XRPD measurements were carried out on samples taken out on day 0, 5, 10, 20 and 30.

[6] = Light stability investigation (light incubator, XRPD); format: physicochemical
Protocol: The phosphate, nicotinate, glycolate, oxalate, orotate, benzenesulfonate and sulfate of SIPI-409 were placed in a light incubator. XRPD measurements were carried out on samples taken out on day 0, 5, 10, 20 and 30.

[7] = Hygroscopicity investigation (dynamic vapor sorption); format: physicochemical; conditions: dynamic vapor sorption analyzer
Text: Hygroscopicity was further investigated by placing the phosphate, nicotinate, glycolate, oxalate, orotate, benzenesulfonate and sulfate of SIPI-409 in a dynamic vapor sorption (DVS) analyzer.

[8] = PO 10 mg/kg (based on SIPI-409), single dose, 10 mg/kg

COc1cc2c(cc1OCc1ccccc1)C(Cc1cccc(NS(C)(=O)=O)c1)NCC2 (stereo not shown) [SIPI-409 Phosphate, 1-(3-methanesulfonamidobenzyl)-6-methoxy,7-benzyloxy-1,2,3,4-tetrahydroisoquinoline]
Solubility in water ([1]; in water, saturated solution shaken 12 hrs at 30° C., HPLC): 9690 µg/mL
Solubility in water compared to SIPI-409 and SIPI-409 hydrochloride ([1]; in words): significantly increased solubility in water
AUC(0-t) [2, 8]: 1366.89 ng·h/mL
AUC(0-∞) [2, 8]: 1437.93 ng·h/mL
F (bioavailability) [2, 8]: 79% and 79.33%
half-life ([2]; SD, rat, plasma, po, 10 mg/kg, PO 10 mg/kg (based on SIPI-409), single dose): 2.66 h
Cmax ([2]; SD, rat, plasma, po, 10 mg/kg, PO 10 mg/kg (based on SIPI-409), single dose, read-out: Cmax): 376 ng/mL
MRT inf ([2]; SD, rat, plasma, po, 10 mg/kg, PO 10 mg/kg (based on SIPI-409), single dose, read-out: MRT(0-∞)): 4.23 h
Increase of bioavailability compared to SIPI-409 hydrochloride ([2]; oral administration): 329%
Tmax ([2]; rat, plasma, PO 10 mg/kg (based on SIPI-409), single dose, read-out: Tmax): 0.33 h
Pharmacokinetic parameters after intravenous administration [3]: substantially comparable to SIPI-409 hydrochloride
Stability 60° C. ([4]; listed as SIPI-409 phosphate): satisfactory stabilities
Stability 60° C. ([4]; listed as phosphate): Stable
Stability 92.5% RH ([5]; listed as SIPI-409 phosphate): satisfactory stabilities
Stability 92.5% RH ([5]; listed as phosphate): Stable
Stability Light ([6]; XRPD on day 0, 5, 10, 20 and 30, listed as SIPI-409 phosphate): satisfactory stabilities
Stability Light ([6]; XRPD on day 0, 5, 10, 20 and 30, listed as phosphate): Stable
DVS Max Hygroscopicity ([7]; listed as SIPI-409 phosphate): 0.7%
DVS Max Hygroscopicity ([7]; listed as phosphate): 0.7%
